Results as given in PMC9416111, “Synthesis and Biological Activity of Unsymmetrical Monoterpenylhetaryl Disulfides” (Molecules, 2022).

Tested on: influenza virus A/Puerto Rico/8/34 (H1N1)
Assay: Antiviral cell protection assay in MDCK cells
Type: cell-based

## CC1(C)[C@H]2CC[C@@H](CSSc3ncccc3C(=O)O)[C@@H]1C2 [Compound 2d, 2-((((1S,2R,5S)-6,6-dimethylbicyclo[3.1.1]heptan-2-yl)methyl)disulfanyl)nicotinic acid]
  virus-inhibiting activity, in words: higher than that of Rimantadine
